From patent US11944701B2, “Protection of materials by sphingosine based compounds” (STICHTING VU, priority 2012, dated 2024)
Where two headings read alike, the source gives them in different places.

Tests used:
[1] = Erosion test: weight loss of HAP disks after exposure to citric acid; conditions: for protection of HAP: 100 μg/ml in Tris-Tween, 3 hrs
Protocol: Dental enamel consists largely of hydroxyapatite crystals (Ca10(PO4)6(OH)2. Sintered at high temperatures, hydroxyapatite discs can be produced with physical characteristics (e.g. hardness and density) resembling those of enamel (Anderson et al, 2004), which can be used to determine erosive properties of solutions (Jensdottir et al, 2005) by measuring weight loss from hydroxyapatite after immersion in an erosive (acidic) solution.
Hydroxyapatite discs, sintered at 1250° C. and with a relative density of 98% were obtained from Swerea, Stockholm, Sweden. The lateral and bottom surfaces of the discs were covered with nail polish so that one side remained uncoated. Next, discs were cleaned by sanding with sand paper (3M734 P600) rinsed with demineralised water, dried at 37° C. overnight and weighed to determine the initial mass. Hydroxyapatite discs were placed in the wells of 12 well cell culture plates (Greiner bio-one, Frickenhausen, Germany), to which was added 1.5 ml of phytosphingosine (PHS in various concentrations dissolved in saliva buffer (2 mM potassium phosphate, 50 mM KCl, 1 mM CaCl2, 0.1 mM MgCl2, pH 6.8) under gently shaking for 3 hours at 37° C. After three times rinsing with 4 ml saliva buffer to remove unbound PHS, discs were placed in new wells with 4 ml of 0.1 M citric acid (pH=3.0). After 30 minutes citric acid was pipetted off and discs were rinsed 3 times with 4 ml demineralized water, dried overnight at 37° C. and weighted. The difference in weight before and after the erosive treatment was taken as a measure for erosion. The experiments were conducted in triplicate and were repeated at least two times. Formation of saliva pellicle on HAP discs was achieved as follows: saliva was collected without conscious stimulation, as described previously (Navazesh, 1993). Saliva was cleared from cellular debris by centrifugation at 10,000 g for 10 minutes. The supernatant (HWS) was collected and used for coating HAP disks with a salivary pellicle. For this purpose, HAP disks were incubated with 4 ml HWS at 37° C. After 3 hrs, disks were rinsed 3 times with distilled water to remove unbound protein. Subsequently, the protective effect of PHS on saliva-coated HAP was tested as described above for bare HAP.
Protection of HAP against erosion was determined essentially as described by Jensdottir et al, (2005), by measuring weight loss from HAP disks before and after immersion in an erosive (acidic) solution using a Sartorius GD503 analytical precision scale. For the erosion experiments, the lateral and bottom surfaces of the disks were covered with nail polish leaving the circular upper surface uncoated. Next, disks were cleaned by sanding with fine sand paper (3M734 P600), rinsed with demineralised water, dried at 37° C. overnight and weighed to determine the initial mass. Stock solutions of lipids were prepared in ethanol to a concentration of 5 mg/ml. These stock solutions were diluted further to the desired concentration in the working buffer. Working solutions of PHS were prepared in saliva buffer (2 mM potassium phosphate, 50 mM KCl, 1 mM CaCl2, 0.1 mM MgCl2, pH 6.8) or in 20 mM Tris (pH 6.8) supplemented with 0.1% Tween 20 (Tris-Tween). HAP disks were placed in the wells of 12 well cell culture plates (Greiner bio-one, Frickenhausen, Germany), to which 1.5 ml of the lipid solutions was added and incubated under gentle shaking for 3 hours at 37° C. After three times rinsing with 4 ml of the incubation buffer to remove unbound lipid, disks were incubated with 4 ml of 0.1 M citric acid (pH=3.0). […] The difference in weight before and after the erosive treatment was taken as a measure for erosion. All incubations were conducted in triplicate and each experiment was repeated at least two times.

Streptococcus mutans = experiment: Antifouling activity of sphingolipids coated on HA discs; assay type: cell-based; conditions: HA discs coated with 100 μg/ml lipid; 2 hr with bacteria
Protocol: (§1) Six different sphingolipids including PHS, PHS phosphate, Sphingosine, Sphinganine, Stearoyl PHS and Sphingomyelin were tested for their antifouling properties against two primary colonizers i.e.—Streptococcus sanguinis and Streptococcus gordonii and a late colonizer, Streptococcus mutans.
(§2) HA discs were incubated 0/N with 100 μg/ml lipid at 37° C. Subsequently, the discs were washed to remove unbound lipid. Then the lipid-coated HA discs were incubated for 2 hr with 1.5 ml of ˜10^7 cells/ml. After washing, the adherent bacterial cells were desorbed by sonication and transferred to agar plates. After 48 hr CFUs were counted.

Streptococcus gordonii = experiment: as above; assay type: cell-based; conditions: HA discs coated with 100 μg/ml lipid; 2 hr with bacteria
Protocol: as §1, §2

Solubility of PHS = assay type: physicochemical
[2] = in saliva buffer; cited from earlier work
[3] = PHS adsorption to HAP (OPA fluorimetry)
Protocol: PHS was dissolved in concentrations ranging from 0 to 500 μg/ml in 20 mM Tris buffer supplemented with 0.1% Tween 20 (pH 6.8) (Tris-Tween). Tween 20 was added to keep PHS in solution. Disks were incubated with the PHS solutions for 18 h, and then rinsed with demin water (3 times) to remove unbound PHS. HAP bound PHS was extracted by incubation with 1.5 ml methanol for 90 minutes. Since nail polish dissolved in methanol, in the binding experiments HAP disks were used without nail polish. It was verified that no PHS was adsorbed to the plastic, by conducting control incubations without disks. After evaporation, the residue was dissolved in 250 μl of methanol. To 100 of this solution 25 μl ortho-phtaldialdehyde reagent (OPA, Sigma-Aldrich) to enable fluorimetric quantification of bound PHS. Fluorescence was measured on a Fluostar microplate reader at excitation/emission wavelengths of 380 nm/450 nm. Absolute quantities were determined by reference to a standard curve of PHS. All incubations were conducted in triplicate and the experiment was repeated two times.

Streptococcus sanguinis = experiment: Antifouling activity of sphingolipids coated on HA discs; assay type: cell-based; conditions: HA discs coated with 100 μg/ml lipid; 2 hr with bacteria
Protocol: as §1, §2

4-hydroxysphinganine-1-phosphate [PHS phosphate]
protection against subsequent erosive attack by citric acid ([1]; 200 μg/ml in saliva buffer): did not afford protection

CCCCCCCCCCCCCCC(O)[C@@H](O)[C@@H](N)COP(=O)(O)O (stereo partly drawn) [PHS phosphate, 4-hydroxysphinganine-1-phosphate]
protection of HAP ([1]; 0.1 M citric acid 30 minutes): protection that was comparable to that by PHS | antifouling activity (reduction of adherent bacteria) (Streptococcus mutans): ~2 log CFU/ml | reduction in bacterial adherence (Streptococcus gordonii): 1.5 log values

CCCCCCCCCCCCCC[C@@H](O)[C@@H](O)[C@@H](N)CO [PHS, phytosphingosine]
effect on the pH of citric acid [1]: no effect | protection when present in the erosive fluid ([1]; 0.1 M citric acid in the presence of 100 ug/ml PHS, 30 minutes, untreated HAP disks): protects against erosion even with untreated HAP disks | duration of the protective effect ([1]; 1 hour exposure to citric acid, 50 μg/ml PHS (FIG. 3)): still protected | protection of disks covered with a salivary pellicle (CHWS) versus controls ([1]; 20 hrs CHWS, then 100 μg/ml PHS in TrisT 3 hrs, 0.1 M citric acid 30 minutes): protected to the same extent | protection against dissolution by citric acid relative to the control disks ([1]; HAP discs pretreated, then 0.1 M citric acid (pH=3) for 30 minutes): more than 80% | PHS concentration at which virtually maximal protection was achieved ([1]; HAP disks incubated 3 hrs with PHS, citric acid 30 minutes): > 20 µg/mL | protection of saliva-coated HAP versus uncoated HAP ([1]; HAP disks preincubated with human saliva (salivary pellicle)): to the same extent | protection at 500 and 50 μg/ml ([1]; PHS 500 and 50 μg/ml): comparable protection | protection at 5 ug/ml ([1]; PHS concentration lowered to 5 ug/ml): steep decrease in protection | protection with PHS dissolved in Tris-Tween compared with saliva buffer ([1]; PHS dissolved in Tris-Tween): essentially the same protection | less weight loss compared to the untreated control disks ([1]; PHS in saliva buffer, subsequent erosive challenge 0.1 M citric acid (pH=3) 30 minutes): 70-80% | protection by pre-treatment ([1]; pretreated 100 ug/ml 3 hours, 0.1 M citric acid (pH=3.0) 30 minutes): protects against the erosive effects of citric acid | effect of solvent used for stock solution on protection ([1]; stock 5 mg/ml in DMSO or ethanol, with or without sonication, 3 hr incubation): No difference | binding level at which protection is maximal ([1]; submaximal binding, 0.1 M citric acid (pH 3.0) 30 minutes): approximately 6 μg per disk | solubility (Solubility of PHS; in Tris-Tween, concentration before and after centrifugation 10 minutes 10,000 g): completely soluble | solubility (Solubility of PHS; in water): moderately soluble | solubility [2]: poorly soluble | PHS adsorbed onto the surface of the disk ([3]; at maximal adsorption (60 μg/ml and higher), Tris-Tween): approximately 12 μg | time to equilibrium of the initial fast phase of binding ([3]; biphasic time course, gradual increase over the next 15 hrs): ≤ 1 h | PHS concentration at which maximal adsorption occurred ([3]; in Tris-Tween): ≥ 60 µg/mL | adsorption to saliva-incubated HAP disks compared to control ([3]; overnight incubation with saliva, then PHS, control saliva buffer): even higher amounts of PHS adsorbed | share of the maximal adsorption level reached ([3]; within 5 minutes): > 65% | amount adsorbed ([3]; within one minute, fixed PHS concentration): substantial amount

CCCCCCCCCCCCCCC[C@@H](O)[C@@H](N)CO [Sphinganine]
protection of HAP ([1]; 0.1 M citric acid 30 minutes): protection that was comparable to that by PHS | effect of phosphate in the buffer on efficacy ([1]; FIG. 8): more effective when provided in a buffer not containing, or containing a minimal amount of, phosphate | protection against citric acid ([1]; used in a Tris buffer (FIG. 8)): protected against citric acid | protection against citric acid ([1]; used in a buffer containing phosphate ions): not when used in a buffer containing phosphate ions | reduction of adherent bacteria (Streptococcus mutans): 3 log | reduction in bacterial adherence (Streptococcus sanguinis): 2 log value | reduction in bacterial adherence (Streptococcus gordonii): 1.5 log values

CCCCCCCCCCCCCCCCCC(=O)N[C@@H](CO)[C@H](O)C(O)CCCCCCCCCCCCCC (stereo partly drawn) [Stearoyl PHS, N-stearoyl 4-4-hydroxysphinganine]
antifouling activity (reduction of adherent bacteria) (Streptococcus mutans): ~2 log CFU/ml

CCCCCCCCCCCCC/C=C/[C@@H](O)[C@@H](N)CO [sphingosine]
protection of HAP ([1]; 0.1 M citric acid 30 minutes): protection that was comparable to that by PHS

Di-myroistyl phosphatidylcholine [reference compound]
protection of HAP ([1]; 0.1 M citric acid 30 minutes): did not protect HAP

sphingomyelin [reference compound]
protection of HAP ([1]; 0.1 M citric acid 30 minutes): did not protect HAP | reduction in bacterial adherence (Streptococcus sanguinis): 1 log value
